The term viability denotes a per cent measure of how many cells are alive, often set against a control.

Values joined by “and” are separate entries in the source; they are usually repeats but may differ in a detail not shown here. Identical values can stand only once.

Experimental findings from article PMC10227015, “From a drug repositioning to a structure-based drug design approach to tackle acute lymphoblastic leukemia” (Nature Communications, 2023) are described below.

For experiment [1], the system named is CCRF-CEM-CRISPR-sgRNA-dCK− cell line. The experiment can be described thus: Proliferation of CCRF-CEM CRISPR-Cas9 cell line deficient for dCK. Type of experiment: cell-based, human. Conditions: dT 200 µM, dC 1 µM. Here is the method: CCFR-CEM cells (obtained from O. Hermine laboratory, Paris, France) were grown at 37 °C in RPMI 1640 with L-glutamine, supplemented with 10% heat-inactivated fetal calf serum. The experiments were carried out on 96-well plates under the following conditions: 14,000 cells per well, RPMI 1640 culture medium supplemented with 10% heat-inactivated fetal calf serum, 200 μM of dT, 1 μM of dC and a range of dilutions of each compound ranging from 40 μM to 10 pM, depending on the activity of the compounds (final 0.2% DMSO). Cells were incubated for 72 h under these different conditions and finally, incubated with 10 µl/well of CellTiter-Blue reagent (Promega) for 4 h at 37 °C. The amount of reduced dye formed by metabolically active cells was quantified by its fluorescence measured at 560 nm (excitation) and 590 nm (emission) in a microplate reader (CLARIOstar, BMG Labtech). A blank well without cells was used as a background control. Each experiment was performed at least three times (with technical triplicates) and data are presented as the mean ± SD.
Stable CCRF-CEM-CRISPR-sgRNA-dCK^− cell line was established by lentiviral transduction using purified lentiviral particles (Horizon Discovery) and blasticidin selection (10 µg/ml). […]

In experiment [2] the test system is UPNT525 patient-derived xenograft. The experiment in a line: T-ALL PDX mouse model UPNT525. Further details: hCD45+ populations determined by flux cytometry at day 19: unit not given here. In kind it is in vivo. Here is the method:
Temperature was maintained between 20 and 24 °C and the hygrometry between 40 and 60%. Sex was not considered in the study design and studies were realized in male mice, as toxicity and pharmacokinetics were performed previously in male mice. […] OR0642 was administered in its hydrochloride salt form (OR0642-HCl). Drug administration protocol is detailed in Fig. 4a. […] Patient-derived xenograft was generated from a primary-T-ALL (UPNT525) sample[28],[29]. Briefly, we injected 1,000,000 cells in 100 μl of PBS by intravenous (IV) retro orbital injection in NSG mice. […] Drug administration protocol is detailed in Fig. 5d. Disease propagation was monitored at day 19 by hCD45 detection in peripheral blood. […] Figures exemplifying the gating strategy are provided in the Supplementary Information (Supplementary Figs. 32 and 33).

The test system of the next experiment is PDX UPNT486. The experiment in a line: Ex vivo testing on PDX samples (viability, flow cytometry, 72 h). In kind it is cell-based, human. The text has this: (§1) Bone marrow-infiltrating blasts from terminally mice bearing PDX as stated above were collected as established before. Extensive analysis (immunophenotype and molecular analysis) of matched primary and PDX samples used in the study are shown in Supplementary Table 7, showing that they remain stable. Briefly, after euthanasia, bone marrows from tibiae, hips, femurs, and vertebrae were isolated and blasts collected for subsequent ex vivo experiments. All samples used contained ≥90% blasts as determined by flow cytometry. For the cytotoxic evaluation of OR0642, blasts were then stained with CellTraceTM Violet (CTV, Thermo Fisher Scientific, C34557) prior seeding at 10,000 cells into 96-well plates under normal conditions or pre-plated with OP9-DL1 cells. Cells were cultured in RPMI 1640 supplemented with 20% fetal bovine serum, 50 µg/ml streptomycin, 50 UI penicillin, 4 mM L-glutamine, and a cocktail of human cytokines as previously established (50 ng/ml human stem cell factor, 20 ng/ml hFLT3-L, 10 ng/ml hIL-7 and 20 nM insulin (Miltenyi Biotec))[28]. […] Rescue by dC supplementation (1 µM) was also evaluated. OR0642 was then tested alone, or combined with dT or dT + dC at two concentrations (0.25 and 0.5 µM). Cell viability was evaluated by flow cytometry 72 h post-treatment. Proliferation indexes were calculated using the detection of CTV in the control replicates (DMSO) and the proliferation modeling tool of FlowJo™ Software 10.7.1 (BD Life Sciences). A control peak of undivided CTV-stained cells was systematically used to set the undivided fraction.
For orientation: A flow cytometer gives signals particle by particle.

A further experiment relates to PDX UPNT885. The description is as above. In kind it is cell-based, human.
Excerpt: as §1

The subject of a further experiment is PDX UPNT615. Described as above. Type of experiment: cell-based, human.
Excerpt: as §1

The next experiment concerns PDX UPNT775. The experiment is described as above. In kind it is cell-based, human.
Excerpt: as §1

In another experiment the test system is PDX UPNT489. Described as above. Type of experiment: cell-based, human.
Excerpt: as §1

For a further experiment, the system named is PDX UPNT525. Described as above. In kind it is cell-based, human.
Excerpt: as §1

[3] abbreviates: PDX mouse model UPNT525, dT 1,5 g/Kg, individual mice.

Turning to `CCCN(c1nc(-c2nc(N)cc(N)n2)cs1)c1cc(-c2ccc(S(=O)(=O)N3CCN(C)CC3)cc2C(F)(F)F)ccc1C` [OR0642], the “effect on cell proliferation” value in experiment [1] is “did not affect cell proliferation”.

As to `Cc1cn([C@H]2C[C@H](O)[C@@H](CO)O2)c(=O)[nH]c1=O` [dT, thymidine], the Survival days in experiment [2] (setting [3]) is 26 days and 38 days and 42 days. For the same compound, the “hCD45+ populations determined by flux cytometry at day 19” value in experiment [2] (setting [3]) is 164 and 330 and 108 and 177 and 168 and 318. The compound also showed a median survival in experiment [2] (dT 1.5 g/kg, OR0642 40 mg/kg IP BID 5 days a week) of 38 days. Besides, the “effect on disease progression” value in experiment [2] (day 19) is listed as “significant decrease in disease progression”. In addition, the viability at 12 µM in the experiment with PDX UPNT486 (Homo sapiens, UPNT486, dT 12 µM, read-out: Cell viability, Mean (% viab)) was determined as 99.7%; in the experiment with PDX UPNT885 (Homo sapiens, UPNT885, dT 12 µM, read-out: Cell viability, Mean (% viab)), 100%; in the experiment with PDX UPNT615 (Homo sapiens, UPNT615, dT 12 µM, read-out: Cell viability, Mean (% viab)), 100%; with PDX UPNT775 (Homo sapiens, UPNT775, dT 12 µM, read-out: Cell viability, Mean (% viab)), 100%; with PDX UPNT489 (Homo sapiens, UPNT489, dT 12 µM, read-out: Cell viability, Mean (% viab)), 100%. Also, the viability at 37 µM with PDX UPNT486 (Homo sapiens, UPNT486, dT 37 µM, read-out: Cell viability, Mean (% viab)) was found to be 95%; with PDX UPNT885 (Homo sapiens, UPNT885, dT 37 µM, read-out: Cell viability, Mean (% viab)), 85.3%; in the experiment on PDX UPNT615 (Homo sapiens, UPNT615, dT 37 µM, read-out: Cell viability, Mean (% viab)), 84.7%; in the experiment on PDX UPNT775 (Homo sapiens, UPNT775, dT 37 µM, read-out: Cell viability, Mean (% viab)), 86.3%; in the experiment on PDX UPNT489 (Homo sapiens, UPNT489, dT 37 µM, read-out: Cell viability, Mean (% viab)) it was 94.6%; in the experiment on PDX UPNT525 (Homo sapiens, UPNT525, dT 37 µM, read-out: Cell viability, Mean (% viab)), 99.5%. Also, the viability at 111 µM came out at 90.6% with PDX UPNT486 (Homo sapiens, UPNT486, dT 111 µM, read-out: Cell viability, Mean (% viab)); 65.1% in the experiment on PDX UPNT885 (Homo sapiens, UPNT885, dT 111 µM, read-out: Cell viability, Mean (% viab)); 78.6% in the experiment on PDX UPNT615 (Homo sapiens, UPNT615, dT 111 µM, read-out: Cell viability, Mean (% viab)); 53.9% with PDX UPNT775 (Homo sapiens, UPNT775, dT 111 µM, read-out: Cell viability, Mean (% viab)); 87% with PDX UPNT489 (Homo sapiens, UPNT489, dT 111 µM, read-out: Cell viability, Mean (% viab)); 67.8% with PDX UPNT525 (Homo sapiens, UPNT525, dT 111 µM, read-out: Cell viability, Mean (% viab)). Also, the viability at 333 µM is 100% in the experiment on PDX UPNT486 (Homo sapiens, UPNT486, dT 333 µM, read-out: Cell viability, Mean (% viab)); 49.5% with PDX UPNT885 (Homo sapiens, UPNT885, dT 333 µM, read-out: Cell viability, Mean (% viab)); 73.6% in the experiment on PDX UPNT615 (Homo sapiens, UPNT615, dT 333 µM, read-out: Cell viability, Mean (% viab)); 40.5% in the experiment with PDX UPNT775 (Homo sapiens, UPNT775, dT 333 µM, read-out: Cell viability, Mean (% viab)); 78.3% in the experiment with PDX UPNT489 (Homo sapiens, UPNT489, dT 333 µM, read-out: Cell viability, Mean (% viab)); 44.3% in the experiment with PDX UPNT525 (Homo sapiens, UPNT525, dT 333 µM, read-out: Cell viability, Mean (% viab)). In addition, the viability at 1000 µM with PDX UPNT486 (Homo sapiens, UPNT486, dT 1000 µM, read-out: Cell viability, Mean (% viab)) is 90.2%; in the experiment on PDX UPNT885 (Homo sapiens, UPNT885, dT 1000 µM, read-out: Cell viability, Mean (% viab)) it was 44.3%; in the experiment with PDX UPNT615 (Homo sapiens, UPNT615, dT 1000 µM, read-out: Cell viability, Mean (% viab)), 67.2%; in the experiment on PDX UPNT775 (Homo sapiens, UPNT775, dT 1000 µM, read-out: Cell viability, Mean (% viab)) it was 36%; in the experiment with PDX UPNT489 (Homo sapiens, UPNT489, dT 1000 µM, read-out: Cell viability, Mean (% viab)), 71.4%; in the experiment on PDX UPNT525 (Homo sapiens, UPNT525, dT 1000 µM, read-out: Cell viability, Mean (% viab)) it was 30.6%. Also, the viability at 3000 µM stood at 77.6% with PDX UPNT486 (Homo sapiens, UPNT486, dT 3000 µM, read-out: Cell viability, Mean (% viab)); 39.5% in the experiment on PDX UPNT885 (Homo sapiens, UPNT885, dT 3000 µM, read-out: Cell viability, Mean (% viab)); 66.7% with PDX UPNT615 (Homo sapiens, UPNT615, dT 3000 µM, read-out: Cell viability, Mean (% viab)); 36.7% in the experiment with PDX UPNT775 (Homo sapiens, UPNT775, dT 3000 µM, read-out: Cell viability, Mean (% viab)); 66.9% with PDX UPNT489 (Homo sapiens, UPNT489, dT 3000 µM, read-out: Cell viability, Mean (% viab)); 24.9% with PDX UPNT525 (Homo sapiens, UPNT525, dT 3000 µM, read-out: Cell viability, Mean (% viab)). Besides, the “Response at dT100 µM” value was 31 with PDX UPNT486 (PDX 486, dT 100 µM); 49 in the experiment on PDX UPNT885 (PDX 885, dT 100 µM); 31 in the experiment with PDX UPNT615 (PDX 615, dT 100 µM); 63 in the experiment with PDX UPNT775 (PDX 775, dT 100 µM); 39 in the experiment on PDX UPNT489 (PDX 489, dT 100 µM); 44 with PDX UPNT525 (PDX 525, dT 100 µM).
